PMC4160910 (European journal of medicinal chemistry, 2014)

Assays:
all stages of S. mansoni = conditions: ref [14],[20]; cited from earlier work
[1] = test system: cultured adult S. japonicum worms; conditions: ref [14],[20]; cited from earlier work
[2] = test system: cultured adult S. haematobium worms; conditions: ref [14],[20]; cited from earlier work
[3] = test system: adult Schistosoma mansoni worms; test: Worm contraction of cultured adult worms; type: cell-based; conditions: after overnight culture with compound, 10 and 50 µM
[4] = test system: adult Schistosoma mansoni worms; test: Worm killing of cultured adult worms, monitored over 144 hrs; type: cell-based; conditions: at the concentrations tested (10 and 50 µM)

SMILES | Activity against all stages of S. mansoni (all stages of S. mansoni) | Activity against cultured adult S. japonicum worms [1] | Activity against cultured adult S. haematobium worms [2] | Time for worms to return to normal length [3] | Time at which worms begin to die after compound is removed from culture media [4]
N#Cc1c(-c2ccccc2)no[n+]1[O-] [Compound 2, 4-phenylfuroxan-3-carbonitrile] | active | active | active | – | –
O=C(C1CCCCC1)N1CC(=O)N2CCc3ccccc3C2C1 (centres unmarked) [PZQ, 2-(cyclohexylcarbonyl)-1,2,3,6,7,11b-hexahydro-4H-pyrazino[2,1-a]isoquinolin-4-one] | – | – | – | > 2 days | 4 to 5 days
